Results from publication PMC10940318, “Targeted intracellular delivery of dimeric STINGa by two pHLIP peptides for treatment of solid tumors” (Frontiers in Pharmacology, 2024).
Several values for one entry are separate records, joined by “and”; a condition that tells them apart may be missing. Equal values may be shown once.

Assays:
[1] = Self-immolation kinetics of the S-S linker and payload release after DTT, by HPLC; type: physicochemical; settings: DTT in 50 mM phosphate buffer, 150 mM NaCl, pH 7.4; HPLC at 0.5-48 h, UV 220/280/325 nm
Description: Figure S3. Kinetics of self-immolation of 2pHLIP-dMSA. […] Starting 2pHLIP-dMSA is shown on A.
Figure S4. Self-immolation kinetics of pHLIP-mMSA. HPLC chromatograms recorded at 280 nm and 325 nm for pHLIP-mMSA treated with DTT dissolved in 50 mM phosphate buffer containing 150 mM NaCl pH 7.4 at different time points ([…]) after addition of DTT (A-G) and the retention time for mMSA (H) and pHLIP (I) are shown. Starting pHLIP-mMSA is shown on A.

[2] = Stability in human plasma; type: in vitro ADME; settings: single donor human plasma, 200 µM, 0-24 h at 37°C, methanol precipitation, HPLC C18, UV 220/280/325 nm
Description: Plasma proteins were precipitated by methanol (1:5 volume ratio of plasma to methanol) and centrifuged for 10 min at 13.4 rpm. The supernatant was collected and analyzed by HPLC using a Zorbax SB-C18 4.6 × 250 mm, 5 μm column with a gradient from 20% to 80% acetonitrile in water containing 0.05% TFA. Chromatograms were recorded at 220 nm, 280 nm and 325 nm.

[3] = Body weight of treated mice; type: in vivo, Balb/c mice; settings: two IP injections, 300 µM or 100 µM 500 µL, days 1 and 3
Description: For the treatment of CT26 tumors, 5 × 10^4 CT26 murine colorectal cancer cells (ATCC, CRL-2638) were injected subcutaneously (SQ) in 100 μL of growth medium into the right flank of female Balb/c mice ranging in age from 7 to 9 weeks (Envigo RMS, Inc.). […] 2pHLIP-dMSA was given as two IP injections of 300 μM 500 μL or 100 μM 500 μL (low dose). The compounds were dissolved in DMSO as a stock solution and transferred to PBS (vehicle). The residual DMSO in the final solution injected into animals was less than 2%. Tumor volume and body weight were measured 3 times per week throughout the study. Measurements of tumors were performed using calipers, and the tumor volume (V) was calculated with the formula: V=0.52∙L∙W^2 where L is the length and W is the width of the measured tumor. Mice were removed from the study and euthanized when the tumor volume was greater than 2,000 mm^3.

[4] = test system: CT26 murine colorectal cancer tumors; assay: Treatment of CT26 tumors in mice; type: in vivo, Balb/c mice; settings: CT26 tumors 100-150 mm3, female Balb/c, followed 65 days
Description: For the treatment of CT26 tumors, 5 × 10^4 CT26 murine colorectal cancer cells (ATCC, CRL-2638) were injected subcutaneously (SQ) in 100 μL of growth medium into the right flank of female Balb/c mice ranging in age from 7 to 9 weeks (Envigo RMS, Inc.). […] The compounds were dissolved in DMSO as a stock solution and transferred to PBS (vehicle). The residual DMSO in the final solution injected into animals was less than 2%. Tumor volume and body weight were measured 3 times per week throughout the study. Measurements of tumors were performed using calipers, and the tumor volume (V) was calculated with the formula: V=0.52∙L∙W^2 where L is the length and W is the width of the measured tumor. Mice were removed from the study and euthanized when the tumor volume was greater than 2,000 mm^3.

[5] = Stability in mouse plasma; settings: BALB/c mouse plasma, 200 µM, 0-24 h at 37°C, methanol precipitation, HPLC C18, UV 220/280/325 nm
Description: Plasma proteins were precipitated by methanol (1:5 volume ratio of plasma to methanol) and centrifuged for 10 min at […]. The supernatant was collected and analyzed by HPLC using a Zorbax SB-C18 4.6 × 250 mm, 5 μm column with a gradient from 20% to 80% acetonitrile in water containing 0.05% TFA. Chromatograms were recorded at 220 nm, 280 nm and 325 nm.

CT26 cancer cells = assay: Re-challenge of tumor-free mice with CT26 cancer cells; type: in vivo, Balb/c mice; settings: 11 survivors of both dose groups, contralateral flank, kept 40 more days
Description: In the 2pHLIP-dMSA treated groups the mice that stayed tumor-free were re-challenged with tumor cells injected into the tumor-free flank on day 65 after the first injection of 2pHLIP-dMSA. Tumor-free mice were kept for an additional 40 days (total of 105 days after the treatment with 2pHLIP-dMSA) and then were euthanized.

ADQDNPWRAYLDLLFPTDTLLLDLLWCG [2pHLIP-dMSA]
time to completion of linker self-immolation and release of payload in its original form [1]: ≤ 48 h | stability in human plasma (in words) [2]: very high | body weight change after treatment (in words) [3]: temporary weight loss followed by complete recovery and regain of weight | mice survived out of treated, lower dose ([4]; two IP injections of 100 µM 500 µL (l.d.) on days 1 and 3): 4 out of 10 and 4/10 | mice with tumor eradicated / survived out of treated ([4]; two IP injections of 300 µM 500 µL on days 1 and 3): 7/10 | stability in mouse plasma (in words) [5]: low | tumor development after re-injection of cancer cells on day 65 (CT26 cancer cells): none of them developed tumors
